The record followed here is ChEMBL document CHEMBL1138605, “Identification of 3-substituted N-benzhydryl-nortropane analogs as nociceptin receptor ligands for the management of cough and anxiety” (Bioorg Med Chem Lett, 2009).

Activity calls are given as the source filed them. No cut-off for these calls is given here.

Data set [1] deals with Delta-type opioid receptor (Homo sapiens, UniProt P41143). Nature of the data set: Displacement of [3H]diprenorphine from human delta opioid receptor expressed in CHO cells. The data set is classed as cell-based.
The species entered for data set [2] is Homo sapiens. Nature of the data set: Selectivity for human cloned ORL1 receptor over human mu opioid receptor.
Data set [3] concerns the target T1, Nuclear receptor subfamily 1 group I member 2 (Homo sapiens, UniProt O75469).
T1 sequence (O75469 whole entry): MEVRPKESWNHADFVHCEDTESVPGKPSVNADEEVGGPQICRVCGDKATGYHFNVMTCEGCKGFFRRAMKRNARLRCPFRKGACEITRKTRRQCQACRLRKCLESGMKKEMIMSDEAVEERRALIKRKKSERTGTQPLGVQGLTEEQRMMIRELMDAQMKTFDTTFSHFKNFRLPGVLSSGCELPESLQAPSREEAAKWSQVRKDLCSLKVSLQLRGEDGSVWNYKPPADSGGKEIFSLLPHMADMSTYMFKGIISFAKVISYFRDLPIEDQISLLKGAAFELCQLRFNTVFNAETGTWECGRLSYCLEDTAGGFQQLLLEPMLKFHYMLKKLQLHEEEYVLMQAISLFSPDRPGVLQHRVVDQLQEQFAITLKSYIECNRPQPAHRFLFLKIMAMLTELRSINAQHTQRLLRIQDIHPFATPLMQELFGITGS
Nature of the data set: Activity at PXR in human hepatocytes assessed as induction of CYP3A4 activity at 1 uM relative rifampicin. Format: cell-based, Hepatocyte.

Data set [4] has as its target T2, Mu-type opioid receptor (Homo sapiens, UniProt P35372). Nature of the data set: Displacement of [3H]diprenorphine from human mu opioid receptor expressed in CHO cells. Format: cell-based. (In general: Loss of bound radioactivity is the signal in a displacement assay; it reports binding, not function.)
In data set [5] the test system is Cavia porcellus. Nature of the data set: Antitussive activity in po dosed guinea pig GPPV model assessed as reduction of capsaicin-induced coughing after 2 hrs administered 15 mins before capsaicin challenge. Format: functional.
The target in data set [6] is T3, Nociceptin receptor (Homo sapiens, UniProt P41146). Nature of the data set: Displacement of [125I][Tyr14]nociceptin from human cloned ORL1 receptor expressed in CHO cells. Format: cell-based.
Data set [7] concerns the target T2, Mu-type opioid receptor. In words: Agonist activity at human mu opioid assessed as stimulation of GTPgammaS binding. Format: functional. On the technique in general: GTPγS resists hydrolysis and so accumulates on activated G proteins.
In data set [8] the target is T3, Nociceptin receptor. Nature of the data set: Agonist activity at human cloned ORL1 receptor assessed as stimulation of GTPgammaS binding. The data set is classed as functional.
The species named for data set [9] is Rattus norvegicus. In words: Anxiolytic like activity in rat assessed as conditioned lick suppression after 2 hrs. The data set is classed as functional.
Data set [10] is filed under the species Cavia porcellus. In words: Anxiolytic like activity in guinea pig assessed as reduction in number of vocalization produced due to separation measured after 2 hrs. Format: functional.
Data set [11] deals with Kappa-type opioid receptor (Homo sapiens, UniProt P41145). Nature of the data set: Displacement of [3H]diprenorphine from human kappa opioid receptor expressed in CHO cells. Format: cell-based.
The nature of data set [12]: Ratio of ED50 for antitussive activity in guinea pig GPPV model to ED50 for anxiolytic like activity in rat. The data set is classed as functional.
Data set [13] addresses T3, Nociceptin receptor. In words: Agonist activity at human cloned ORL1 receptor assessed as stimulation of GTPgammaS binding at 10 uM. The data set is classed as functional.
The subject of data set [14] is Cavia porcellus. In words: Antitussive activity in guinea pig GPPV model assessed as reduction of capsaicin-induced coughing at 0.3 mg/kg, po after 2 hrs administered 15 mins before capsaicin challenge. Format: functional.
For data set [15], the target named is T2, Mu-type opioid receptor. Nature of the data set: Agonist activity at human mu opioid receptor assessed as stimulation of GTPgammaS binding at 10 uM. Format: functional.
The target in data set [16] is T2, Mu-type opioid receptor. Nature of the data set: Agonist activity at human mu opioid receptor assessed as stimulation of GTPgammaS binding at 5.5 uM. Format: functional.
Data set [17] deals with T3, Nociceptin receptor. In words: Agonist activity at human cloned ORL1 receptor assessed as stimulation of GTPgammaS binding at 5.5 uM. The data set is classed as functional.
The test system of data set [18] is Cavia porcellus. Nature of the data set: Anxiolytic like activity in guinea pig assessed as reduction in number of vocalization produced due to separation measured at 3 mg/kg, po after 2 hrs. The data set is classed as functional, organism-based. Set-up: dose 3 mg/kg.

T3 sequence (P41146 whole entry): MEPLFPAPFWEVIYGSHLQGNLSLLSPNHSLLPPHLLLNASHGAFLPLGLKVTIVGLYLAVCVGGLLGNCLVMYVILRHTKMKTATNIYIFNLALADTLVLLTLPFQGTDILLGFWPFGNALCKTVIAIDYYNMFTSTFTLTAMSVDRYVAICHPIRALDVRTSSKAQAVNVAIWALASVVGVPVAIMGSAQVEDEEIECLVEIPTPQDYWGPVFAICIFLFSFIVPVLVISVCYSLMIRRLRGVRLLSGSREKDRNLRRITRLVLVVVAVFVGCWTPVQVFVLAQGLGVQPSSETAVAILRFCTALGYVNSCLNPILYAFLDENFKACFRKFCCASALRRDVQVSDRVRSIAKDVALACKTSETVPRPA
T2 sequence (P35372 whole entry): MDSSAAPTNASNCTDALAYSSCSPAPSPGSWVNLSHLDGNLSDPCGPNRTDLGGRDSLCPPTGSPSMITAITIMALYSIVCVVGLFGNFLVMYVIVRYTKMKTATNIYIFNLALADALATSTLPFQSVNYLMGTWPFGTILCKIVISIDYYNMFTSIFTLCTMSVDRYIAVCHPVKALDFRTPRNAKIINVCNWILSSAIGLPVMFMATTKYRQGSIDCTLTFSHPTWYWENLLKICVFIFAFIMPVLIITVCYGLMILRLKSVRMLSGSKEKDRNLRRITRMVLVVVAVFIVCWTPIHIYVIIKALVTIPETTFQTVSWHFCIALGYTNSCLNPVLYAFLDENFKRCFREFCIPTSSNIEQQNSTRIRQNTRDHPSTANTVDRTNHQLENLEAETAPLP
Delta-type opioid receptor, sequence (P41143 whole entry): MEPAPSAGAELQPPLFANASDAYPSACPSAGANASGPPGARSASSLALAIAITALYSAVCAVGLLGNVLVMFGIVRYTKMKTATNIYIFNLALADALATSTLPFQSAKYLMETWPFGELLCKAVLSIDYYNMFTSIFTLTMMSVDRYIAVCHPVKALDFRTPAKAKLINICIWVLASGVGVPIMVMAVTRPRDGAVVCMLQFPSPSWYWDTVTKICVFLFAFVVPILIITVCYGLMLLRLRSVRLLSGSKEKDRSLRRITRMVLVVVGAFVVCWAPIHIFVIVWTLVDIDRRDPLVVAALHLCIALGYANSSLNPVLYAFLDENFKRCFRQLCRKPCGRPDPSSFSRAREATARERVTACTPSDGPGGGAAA
Kappa-type opioid receptor, sequence (P41145 whole entry): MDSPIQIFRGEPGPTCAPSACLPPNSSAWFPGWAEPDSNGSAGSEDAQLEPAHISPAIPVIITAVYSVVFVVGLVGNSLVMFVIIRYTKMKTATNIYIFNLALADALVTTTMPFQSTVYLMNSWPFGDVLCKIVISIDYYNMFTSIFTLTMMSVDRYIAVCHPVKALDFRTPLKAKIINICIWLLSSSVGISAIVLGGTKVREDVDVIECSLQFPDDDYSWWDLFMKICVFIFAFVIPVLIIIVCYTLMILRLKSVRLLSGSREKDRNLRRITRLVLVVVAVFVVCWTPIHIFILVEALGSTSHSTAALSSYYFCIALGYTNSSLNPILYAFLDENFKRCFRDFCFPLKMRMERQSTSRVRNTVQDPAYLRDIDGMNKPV

Regarding `NC(=O)[C@]1(c2ccc(F)cn2)C[C@H]2CC[C@@H](C1)N2C(c1ccccc1Cl)c1ccccc1Cl`, the inhibitory constant (Ki) in data set [1] is 3350 nM; in [4], 123 nM; in data set [6], 7 nM; in data set [11], 1610 nM. In addition, in data set [2], the fold change (FC) is 37. Besides, the Ratio in data set [3] is on record as 0.29. Moreover, the results for the median effective dose (ED50) in data set [5], in data set [9] and in [10] were 0.02 mg/kg, 1.7 mg/kg and 0.3 mg/kg, respectively. Besides, the EC50 in data set [7] worked out at 733 nM; in data set [8] it was 20 nM. In [12], the “Ratio ED50” value was 15. In addition, the Activity in data set [13] came out at 95%.
Turning to `N[C@]1(c2ccc(F)cn2)C[C@H]2CC[C@@H](C1)N2C(c1ccccc1Cl)c1ccccc1Cl`, the outcome in data set [14] was inactive. The fold change (FC) in data set [2] turned out to be 32. Besides, the Ratio in [3] was found to be 0.23. The results for the Ki in data set [4] and in data set [6] were 209 nM and 7 nM, respectively.
For the compound `NC(=O)[C@]1(c2ccc(Cl)cn2)C[C@H]2CC[C@@H](C1)N2C(c1ccccc1Cl)c1ccccc1Cl`, in data set [3], the Ratio is 0.27. Moreover, the figures for the inhibitory constant (Ki) in data set [4] and in [6] were 143 nM and 15 nM, respectively. Moreover, the EC50 in data set [7] worked out at 368 nM; in data set [8], 44 nM. Besides, in data set [9], the 50% effective dose (ED50) is 2.4 mg/kg. The values for the Activity in data set [15] and in data set [13] were 97% and 145%, respectively.
With `COC(=O)N[C@]1(Cc2ccc(Cl)cc2)C[C@H]2CC[C@@H](C1)N2C(c1ccccc1Cl)c1ccccc1Cl`, in data set [3], the Ratio was found to be 1.1. The Activity in data set [16] is 59%; in [17], 85%. Also, the affinity in data set [6], expressed as Ki, was 56 nM. In addition, the half-maximal effective concentration (EC50) worked out at 1560 nM in data set [7] and 14 nM in data set [8].
In turn, `COC(=O)N[C@]1(c2ccccn2)C[C@H]2CC[C@@H](C1)N2C(c1ccccc1Cl)c1ccccc1Cl` registered a fold change (FC) in [2] of 74. Further, the Ratio in data set [3] amounted to 0.98. Further, the Ki in data set [4] was 741 nM; in data set [6], 10 nM. In addition, the EC50 in data set [7] is 3780 nM; in [8], 87 nM. The Activity in [15] was found to be 52%; in data set [13], 92%.
For the compound `N[C@]1(c2ccccn2)C[C@H]2CC[C@@H](C1)N2C(c1ccccc1Cl)c1ccccc1Cl`, in data set [14], the result was inactive. The same compound had a fold change (FC) in data set [2] of 32. For the same compound, the Ratio in [3] is 0.47. The Ki was found to be 343 nM in data set [4] and 10 nM in data set [6].
As to `COc1ccc2c3c1O[C@H]1[C@@H](O)C=C[C@H]4[C@@H](C2)N(C)CC[C@@]341` [CODEINE], in data set [5], the 50% effective dose (ED50) was determined as 6.7 mg/kg.
Take `NC(=O)C[C@]1(Cc2ccc(F)cc2)C[C@H]2CC[C@@H](C1)N2C(c1ccccc1Cl)c1ccccc1Cl`: the Activity in data set [14] was 38%. The fold change (FC) in data set [2] amounted to 63. The Ratio in data set [3] amounted to 0.35. Also, the result in data set [18] was inactive. Further, the inhibition constant (Ki) in data set [4] turned out to be 190 nM; in data set [6], 3 nM.
Regarding `CC(=O)NC[C@]1(c2ccccc2)C[C@H]2CC[C@@H](C1)N2C(c1ccccc1Cl)c1ccccc1Cl`, the Ratio in data set [3] was 0.94. Besides, the median effective dose (ED50) in data set [5] turned out to be 0.19 mg/kg. In addition, the Ki in [6] was 20 nM. For the same compound, the EC50 in [8] was found to be 269 nM.

What is called Ki is a dissociation constant, usually derived from enzyme kinetics or from competition with a known ligand. Usually ED50 stands for the dose at which the effect has come halfway, by size or by number of responders. In general, EC50 refers to the midpoint of the concentration-response curve.
